{
  "source": "patent US7132427B2",
  "about": "“Quinazolines and uses thereof” (Ariad Pharmaceuticals, Inc., priority 2001, dated 2006)",
  "assay": "Hydroxyapatite assay (hydroxyapatite adsorption chromatography, bone-targeting potential)",
  "type": "physicochemical",
  "details": "K=(retention time-void time)/void, corrected using two reference compounds; TSK-Gel HA 1000 HPLC column; linear gradient 10 mM to 500 mM sodium phosphate, 0.15 N NaCl, pH 6.8",
  "description": "Hydroxyapatite is the principal mineral component of bone. Hydroxyapatite adsorption chromatography is used as an assay to evaluate the bone-targeting potential of both individual bone-targeting moieties (“monomers”) and of pharmaceuticals incorporating bone-targeting groups.\nMethod: The rentention time of a test compound is measured using a linear gradient from 10 mM sodium phosphate, 0.15 N NaCl, pH=6.8 to 500 mM sodium phosphate, 0.15 N NaCl, […] on a TSK-Gel HA 1000 high pressure liquid chromatography column (7.5 mm×75 mm). The rentention time of the compound is expressed in terms of K=(retention time-void time)/void. This K value is corrected using two reference compounds to correct from inter-column and inter-system variation to obtain a K′ value.\nReference Compounds: K′ values were determined for known bone targeted compounds, the bisphosphonate, alendronate and tetracycline.",
  "data": [
    {"compound": "NCCCC(O)(P(=O)(O)O)P(=O)(O)O", "note": "[Alendronate, alendronate]", "values": [
      {"measurement": "K′ value", "value": 3.7}
    ]}
  ]
}
